According to BindingDB's records for doi:10.1016/j.bmcl.2010.11.084 (Merck Frosst Centre For Therapeutic Research, 2011):

Test: Antagonist activity at CRTH2 in human eosinophil assessed as effect of cellular shape change by EOS assay

Structure (SMILES) | IC50 [nM]
CN([C@@H]1CCc2c(CC(=O)O)c3ccc(-c4ccc(F)cc4)nc3n2C1)S(=O)(=O)c1ccc(F)cc1 [(R)-2-(8-(4-fluoro-N-methylphenylsulfonamido)-2-(4-fluorophenyl)-6,7,8,9-tetrahydropyrido[3,2-b]indolizin-5-yl)acetic acid] | 16
CN(C(=O)C1(c2ccc(F)cc2)CCC1)[C@@H]1CCc2c(CC(=O)O)c3cccnc3n2C1 [(R)-2-(8-(1-(4-fluorophenyl)-N-methylcyclobutanecarboxamido)-6,7,8,9-tetrahydropyrido[3,2-b]indolizin-5-yl)acetic acid] | 1.2
CN([C@@H]1CCc2c(CC(=O)O)c3cccnc3n2C1)S(=O)(=O)c1ccc(F)cc1 [(R)-2-(8-(4-fluoro-N-methylphenylsulfonamido)-6,7,8,9-tetrahydropyrido[3,2-b]indolizin-5-yl)acetic acid] | 7
CN(C(=O)C1(c2ccc(F)cc2)CC1(C)C)[C@@H]1CCc2c(CC(=O)O)c3cccnc3n2C1 (stereo partly drawn) [2-((8R)-8-(1-(4-fluorophenyl)-N,2,2-trimethylcyclopropanecarboxamido)-6,7,8,9-tetrahydropyrido[3,2-b]indolizin-5-yl)acetic acid] | 2.4
CN(C(=O)C(C)(C)c1ccc(F)cc1)[C@@H]1CCc2c(CC(=O)O)c3cccnc3n2C1 [(R)-2-(8-(2-(4-fluorophenyl)-N,2-dimethylpropanamido)-6,7,8,9-tetrahydropyrido[3,2-b]indolizin-5-yl)acetic acid] | 2.3

Next, values leading:

IC50 [nM] | Structure (SMILES)
3.1 | CN(C(=O)C1(c2ccc(F)cc2)CC1)[C@@H]1CCc2c(CC(=O)O)c3cccnc3n2C1 [(R)-2-(8-(1-(4-fluorophenyl)-N-methylcyclopropanecarboxamido)-6,7,8,9-tetrahydropyrido[3,2-b]indolizin-5-yl)acetic acid]
3.4 | CN(C(=O)C1(c2ccc(F)cc2)CCCC1)[C@@H]1CCc2c(CC(=O)O)c3cccnc3n2C1 [(R)-2-(8-(1-(4-fluorophenyl)-N-methylcyclopentanecarboxamido)-6,7,8,9-tetrahydropyrido[3,2-b]indolizin-5-yl)acetic acid]
1.2 | C[C@@H](C(=O)N(C)[C@@H]1CCc2c(CC(=O)O)c3cccnc3n2C1)c1ccc(F)cc1 [2-((R)-8-((R)-2-(4-fluorophenyl)-N-methylpropanamido)-6,7,8,9-tetrahydropyrido[3,2-b]indolizin-5-yl)acetic acid]
